# Measured values: ChEMBL document CHEMBL1201862, “PubChem BioAssay data set” (2004)
# Calls of active or inactive are those of the source.
# Assays:
# [1] = target: T1, Sentrin-specific protease 7 (Homo sapiens, UniProt Q9BQF6); assay: inhibition of human SENP7 cleavage activity – biochemical, luminescence, SAR follow-up (AID 504497); format: functional
# T1 sequence (Q9BQF6 whole entry): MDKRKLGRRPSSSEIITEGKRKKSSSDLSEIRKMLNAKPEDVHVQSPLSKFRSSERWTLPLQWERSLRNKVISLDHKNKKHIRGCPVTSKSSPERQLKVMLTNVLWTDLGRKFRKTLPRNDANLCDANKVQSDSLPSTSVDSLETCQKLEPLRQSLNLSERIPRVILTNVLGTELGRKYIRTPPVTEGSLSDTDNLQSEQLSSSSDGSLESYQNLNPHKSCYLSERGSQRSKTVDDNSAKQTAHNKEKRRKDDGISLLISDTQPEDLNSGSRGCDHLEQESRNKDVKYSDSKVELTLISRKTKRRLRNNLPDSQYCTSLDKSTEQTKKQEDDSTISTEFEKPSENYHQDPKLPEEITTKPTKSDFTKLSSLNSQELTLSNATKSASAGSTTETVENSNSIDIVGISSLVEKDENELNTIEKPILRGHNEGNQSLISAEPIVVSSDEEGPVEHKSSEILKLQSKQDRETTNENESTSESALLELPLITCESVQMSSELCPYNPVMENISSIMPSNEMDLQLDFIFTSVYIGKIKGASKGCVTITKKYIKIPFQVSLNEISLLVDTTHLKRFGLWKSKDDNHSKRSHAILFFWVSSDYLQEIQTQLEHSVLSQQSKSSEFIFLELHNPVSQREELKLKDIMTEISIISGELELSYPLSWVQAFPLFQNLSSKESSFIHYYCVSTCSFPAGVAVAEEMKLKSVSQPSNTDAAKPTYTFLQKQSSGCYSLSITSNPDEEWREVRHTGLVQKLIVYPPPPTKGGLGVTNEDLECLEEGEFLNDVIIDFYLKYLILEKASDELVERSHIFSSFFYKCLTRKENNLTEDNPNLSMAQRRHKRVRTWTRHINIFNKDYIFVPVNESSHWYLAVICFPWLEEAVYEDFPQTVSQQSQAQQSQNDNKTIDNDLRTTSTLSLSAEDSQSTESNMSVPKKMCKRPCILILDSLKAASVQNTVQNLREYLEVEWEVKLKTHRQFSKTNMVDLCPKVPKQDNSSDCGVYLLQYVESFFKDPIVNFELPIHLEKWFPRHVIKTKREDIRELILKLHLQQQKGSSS
# Caspase-3 = target: T2, Caspase-3 (Homo sapiens, UniProt P42574); assay: SAR Analysis of small molecule inhibitors of Sentrin-specific proteases (SENPs) using a Caspase-3 Selectivity assay. [Related pubchem assays (depositor defined):AID2540, AID2599, AID434973, AID489001]; format: functional
# T2 sequence (P42574 whole entry): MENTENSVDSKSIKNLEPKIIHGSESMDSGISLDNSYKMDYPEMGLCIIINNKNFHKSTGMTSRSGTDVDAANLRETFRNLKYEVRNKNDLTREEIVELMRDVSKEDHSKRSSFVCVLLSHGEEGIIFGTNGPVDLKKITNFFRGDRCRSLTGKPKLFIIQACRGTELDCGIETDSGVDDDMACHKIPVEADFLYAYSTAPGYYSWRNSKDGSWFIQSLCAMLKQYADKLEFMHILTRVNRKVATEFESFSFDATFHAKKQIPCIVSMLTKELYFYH
# [2] = target: T3, Sentrin-specific protease 8 (Homo sapiens, UniProt Q96LD8); assay: inhibition of human SENP8 cleavage activity – biochemical, luminescence, SAR follow-up (AID 504501); format: functional
# T3 sequence (Q96LD8 whole entry): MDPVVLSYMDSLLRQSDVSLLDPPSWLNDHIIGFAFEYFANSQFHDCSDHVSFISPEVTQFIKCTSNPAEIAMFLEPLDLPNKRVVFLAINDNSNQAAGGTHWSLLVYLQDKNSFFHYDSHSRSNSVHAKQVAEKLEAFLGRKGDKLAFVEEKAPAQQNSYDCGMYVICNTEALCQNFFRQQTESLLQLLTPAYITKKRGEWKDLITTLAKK
# [3] = target: T4, Sentrin-specific protease 6 (Homo sapiens, UniProt Q9GZR1); assay: SAR Analysis of small molecule inhibitors of Sentrin-specific protease 6 (SENP6) using a Luminescent assay. [Related pubchem assays (depositor defined):AID2582, AID2599]; format: functional
# T4 sequence (Q9GZR1 whole entry): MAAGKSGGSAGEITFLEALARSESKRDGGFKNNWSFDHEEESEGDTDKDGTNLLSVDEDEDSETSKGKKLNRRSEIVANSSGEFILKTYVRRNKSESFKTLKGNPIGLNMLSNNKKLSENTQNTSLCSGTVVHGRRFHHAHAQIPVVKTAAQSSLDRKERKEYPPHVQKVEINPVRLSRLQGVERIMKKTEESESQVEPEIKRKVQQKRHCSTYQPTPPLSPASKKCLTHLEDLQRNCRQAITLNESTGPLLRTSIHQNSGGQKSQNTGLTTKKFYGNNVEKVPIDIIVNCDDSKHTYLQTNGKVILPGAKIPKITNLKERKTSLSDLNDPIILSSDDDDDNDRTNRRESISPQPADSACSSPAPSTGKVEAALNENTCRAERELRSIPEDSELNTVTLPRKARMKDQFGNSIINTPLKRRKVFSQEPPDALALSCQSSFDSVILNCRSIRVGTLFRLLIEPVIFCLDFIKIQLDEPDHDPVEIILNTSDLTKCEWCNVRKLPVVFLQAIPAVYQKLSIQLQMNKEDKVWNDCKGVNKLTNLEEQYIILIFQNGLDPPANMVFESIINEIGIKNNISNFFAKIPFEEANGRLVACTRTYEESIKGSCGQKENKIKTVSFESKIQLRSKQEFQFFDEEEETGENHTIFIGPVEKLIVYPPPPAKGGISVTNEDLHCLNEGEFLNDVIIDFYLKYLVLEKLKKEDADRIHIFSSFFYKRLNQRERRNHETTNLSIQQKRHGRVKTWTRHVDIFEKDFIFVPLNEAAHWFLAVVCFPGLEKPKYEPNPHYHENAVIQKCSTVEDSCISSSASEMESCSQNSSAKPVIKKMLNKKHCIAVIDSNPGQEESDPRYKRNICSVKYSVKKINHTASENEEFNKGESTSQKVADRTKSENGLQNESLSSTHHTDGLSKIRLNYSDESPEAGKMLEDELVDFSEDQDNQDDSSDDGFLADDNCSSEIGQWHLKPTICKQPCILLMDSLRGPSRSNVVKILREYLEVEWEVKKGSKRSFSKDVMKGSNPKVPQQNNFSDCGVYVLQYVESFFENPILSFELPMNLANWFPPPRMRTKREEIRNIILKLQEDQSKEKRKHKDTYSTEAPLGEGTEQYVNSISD
# [4] = target: Hepatocyte nuclear factor 4-alpha (Homo sapiens, UniProt P41235); format: functional, cell-based;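 further: biochemical luminescence-based dose-response counterscreen measuring inhibition of HNF4 dimerization, run alongside a screen for blockers of ABHD5–perilipin-5 interaction; split luciferase complementation of HNF4 fusion proteins in cell lysate measuring dimerization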
# [5] = target: Induced myeloid leukemia cell differentiation protein Mcl-1 (Homo sapiens, UniProt Q07820); format: functional
# [6] = target: Adenosylmethionine-8-amino-7-oxononanoate aminotransferase (Mycobacterium tuberculosis, UniProt P9WQ81); assay: Mycobacterium tuberculosis BioA enzyme inhibitor Measured in Biochemical System Using Plate Reader - 2163-02_Inhibitor_Dose_CherryPick_Activity.; format: functional, Mycobacterium tuberculosis UT205
# [7] = Luminescence Cell-Based Dose Confirmation HTS to Identify Activators of 5'UTR Stem-Loop Driven Alpha-Synuclein mRNA Translation in H4 Neuroglioblastoma Cells. [Related pubchem assays: 1829 (Project Summary), 1814 (Primary HTS)]; format: functional
# [8] = target: T5, Low molecular weight phosphotyrosine protein phosphatase (Homo sapiens, UniProt P24666); format: functional; conditions: read-out: IC50_Mean
# T5 sequence (P24666 whole entry): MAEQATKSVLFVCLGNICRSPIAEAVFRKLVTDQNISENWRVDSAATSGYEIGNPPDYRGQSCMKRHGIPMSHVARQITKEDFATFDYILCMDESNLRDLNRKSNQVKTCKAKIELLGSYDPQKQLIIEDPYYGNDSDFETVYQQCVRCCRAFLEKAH
# [9] = target: T6, DNA repair and recombination protein RAD54-like (Homo sapiens, UniProt Q92698); assay: RAD54 Holliday junction migration blockers – biochemical, fluorescence, cherry-picked samples, dose series, confirmation (AID 651657); format: functional
# T6 sequence (Q92698 whole entry): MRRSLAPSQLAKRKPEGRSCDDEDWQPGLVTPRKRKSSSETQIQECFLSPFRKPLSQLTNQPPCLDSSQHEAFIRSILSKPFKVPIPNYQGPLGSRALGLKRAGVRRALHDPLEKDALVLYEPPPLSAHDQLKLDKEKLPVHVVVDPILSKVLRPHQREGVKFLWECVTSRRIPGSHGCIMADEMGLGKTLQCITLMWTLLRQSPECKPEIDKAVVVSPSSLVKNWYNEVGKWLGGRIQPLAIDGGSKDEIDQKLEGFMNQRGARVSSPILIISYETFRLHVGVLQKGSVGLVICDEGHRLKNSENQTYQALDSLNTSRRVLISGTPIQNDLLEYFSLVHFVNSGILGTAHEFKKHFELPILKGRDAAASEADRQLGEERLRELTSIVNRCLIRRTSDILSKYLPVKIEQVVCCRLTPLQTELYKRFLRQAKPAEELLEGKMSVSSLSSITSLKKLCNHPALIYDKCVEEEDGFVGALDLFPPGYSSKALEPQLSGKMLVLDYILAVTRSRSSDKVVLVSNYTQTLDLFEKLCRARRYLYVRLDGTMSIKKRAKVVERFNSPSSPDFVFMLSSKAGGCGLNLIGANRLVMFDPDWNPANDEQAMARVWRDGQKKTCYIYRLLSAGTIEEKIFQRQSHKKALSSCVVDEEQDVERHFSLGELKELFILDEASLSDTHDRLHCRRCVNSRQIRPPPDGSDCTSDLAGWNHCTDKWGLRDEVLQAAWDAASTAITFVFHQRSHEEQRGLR
# [10] = Luminescence Cell-Based Dose Response HTS to Identify Activators of Luciferase Translation or Activity in H4 […] Cells. [Related pubchem assays: 1829 (Project Summary), 1814 (Primary HTS)]; format: functional
# H4 = assay: Luminescence Cell-Based Dose Response HTS to Identify Activators of 5'UTR Stem-Loop Driven Prion Protein mRNA Translation in H4 Neuroglioblastoma Cells. [Related pubchem assays: 1829 (Project Summary), 1814 (Primary HTS)]; format: functional; conditions: Homo sapiens
# [11] = target: T5, Low molecular weight phosphotyrosine protein phosphatase; format: functional; conditions: read-out: IC50_Mean; remark: listed apart in the source
# [12] = target: Mitochondrial peptide methionine sulfoxide reductase (Bos taurus, UniProt P54149); assay: Absorbance-based biochemical high throughput dose response assay for activators of Methionine sulfoxide reductase A (MsrA).; format: functional
# Protein Wnt-3a = Protein Wnt-3a (Mus musculus, UniProt P27467); assay: antagonism of Wnt3a pathway luciferase reporter – Wnt-LIGHT cells, luminescence, selectivity assay for Gli-SUFU antagonist project, dose response (AID 651570); format: functional; conditions: read-out: IC50_Mean;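 further: Wnt-LIGHT reporter cells stimulated with conditioned medium from Wnt3a-producing cells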
# [13] = inhibition of ARNT PAS-B/TACC3 complex formation – biochemical, AlphaScreen, cherry-picked samples, confirmation (AID 651703); format: functional, Homo sapiens;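 further: His-tagged ARNT PAS-B domain paired with GST-TACC3 E629A dimer coactivator fragment; potency of inhibitors that break up the complex and lower AlphaScreen signal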
# [14] = target: T7, Rac GTPase-activating protein 1 (Homo sapiens, UniProt Q9H0H5); assay: blockers of MgcRacGAP-driven Rac1 GTP hydrolysis – biochemical, ADP Hunter fluorescence, primary and confirmatory, confirmation (AID 624330); format: functional
# T7 sequence (Q9H0H5 whole entry): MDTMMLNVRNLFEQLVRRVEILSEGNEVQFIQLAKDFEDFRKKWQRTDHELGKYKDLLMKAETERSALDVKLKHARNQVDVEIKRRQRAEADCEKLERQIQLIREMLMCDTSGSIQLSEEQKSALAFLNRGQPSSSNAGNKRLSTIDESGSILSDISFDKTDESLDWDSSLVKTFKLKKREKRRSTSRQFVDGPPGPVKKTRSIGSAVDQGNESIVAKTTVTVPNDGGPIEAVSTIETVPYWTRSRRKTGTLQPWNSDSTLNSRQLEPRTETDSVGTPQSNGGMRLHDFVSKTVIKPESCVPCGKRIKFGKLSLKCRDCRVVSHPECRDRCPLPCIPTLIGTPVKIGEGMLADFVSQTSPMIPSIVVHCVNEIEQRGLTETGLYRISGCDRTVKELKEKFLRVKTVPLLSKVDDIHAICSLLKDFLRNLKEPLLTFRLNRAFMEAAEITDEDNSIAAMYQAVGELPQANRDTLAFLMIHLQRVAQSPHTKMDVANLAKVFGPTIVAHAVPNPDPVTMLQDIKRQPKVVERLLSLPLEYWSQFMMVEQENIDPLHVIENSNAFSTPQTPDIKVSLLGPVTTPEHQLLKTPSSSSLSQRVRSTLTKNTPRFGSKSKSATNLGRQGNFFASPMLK
# Adenosylmethionine-8-amino-7-oxononanoate aminotransferase, sequence (P9WQ81 whole entry): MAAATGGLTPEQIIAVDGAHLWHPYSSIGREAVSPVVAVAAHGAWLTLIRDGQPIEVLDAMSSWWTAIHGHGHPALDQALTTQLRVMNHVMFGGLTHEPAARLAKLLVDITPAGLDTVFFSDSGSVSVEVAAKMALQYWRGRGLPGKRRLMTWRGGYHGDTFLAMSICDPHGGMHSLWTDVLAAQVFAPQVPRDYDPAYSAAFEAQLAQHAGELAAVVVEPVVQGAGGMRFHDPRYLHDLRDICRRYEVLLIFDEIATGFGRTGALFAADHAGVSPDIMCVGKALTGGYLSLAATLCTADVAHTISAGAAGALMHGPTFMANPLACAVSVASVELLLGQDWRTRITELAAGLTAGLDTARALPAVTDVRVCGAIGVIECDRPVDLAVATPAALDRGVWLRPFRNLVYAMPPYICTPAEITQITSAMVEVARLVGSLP
# Protein Wnt-3a, sequence (P27467 whole entry, the tested form may be a part): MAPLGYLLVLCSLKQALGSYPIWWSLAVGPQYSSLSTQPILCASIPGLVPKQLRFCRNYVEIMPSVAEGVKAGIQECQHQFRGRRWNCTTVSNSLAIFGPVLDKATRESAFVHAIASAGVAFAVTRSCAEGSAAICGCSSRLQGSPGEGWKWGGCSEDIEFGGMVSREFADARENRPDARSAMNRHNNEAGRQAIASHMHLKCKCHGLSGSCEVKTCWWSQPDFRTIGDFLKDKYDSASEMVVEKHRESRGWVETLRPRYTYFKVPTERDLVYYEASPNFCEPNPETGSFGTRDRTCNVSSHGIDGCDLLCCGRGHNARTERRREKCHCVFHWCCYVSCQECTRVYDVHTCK
# Hepatocyte nuclear factor 4-alpha, sequence (P41235 whole entry, the tested form may be a part): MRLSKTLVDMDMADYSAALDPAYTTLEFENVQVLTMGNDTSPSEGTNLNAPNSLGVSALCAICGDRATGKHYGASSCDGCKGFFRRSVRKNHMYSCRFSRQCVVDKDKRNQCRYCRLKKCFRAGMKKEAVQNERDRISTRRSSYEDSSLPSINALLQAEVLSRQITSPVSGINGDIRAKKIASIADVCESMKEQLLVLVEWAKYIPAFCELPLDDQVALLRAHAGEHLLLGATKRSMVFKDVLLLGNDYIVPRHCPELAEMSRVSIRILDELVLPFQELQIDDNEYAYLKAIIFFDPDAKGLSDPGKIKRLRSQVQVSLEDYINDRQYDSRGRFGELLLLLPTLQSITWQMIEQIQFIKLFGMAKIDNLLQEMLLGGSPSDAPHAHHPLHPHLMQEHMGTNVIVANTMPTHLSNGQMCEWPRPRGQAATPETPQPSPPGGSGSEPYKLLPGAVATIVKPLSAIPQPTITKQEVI
# Induced myeloid leukemia cell differentiation protein Mcl-1, sequence (Q07820 whole entry): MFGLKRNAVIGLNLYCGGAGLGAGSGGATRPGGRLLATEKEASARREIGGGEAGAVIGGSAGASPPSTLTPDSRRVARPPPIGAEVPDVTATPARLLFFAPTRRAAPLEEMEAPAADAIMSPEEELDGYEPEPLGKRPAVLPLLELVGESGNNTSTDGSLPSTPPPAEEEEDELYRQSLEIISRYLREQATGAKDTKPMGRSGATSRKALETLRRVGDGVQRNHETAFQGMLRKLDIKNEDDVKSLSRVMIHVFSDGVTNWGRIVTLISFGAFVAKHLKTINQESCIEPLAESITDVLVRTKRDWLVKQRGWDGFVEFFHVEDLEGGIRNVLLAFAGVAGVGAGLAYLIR
# Mitochondrial peptide methionine sulfoxide reductase, sequence (P54149 whole entry): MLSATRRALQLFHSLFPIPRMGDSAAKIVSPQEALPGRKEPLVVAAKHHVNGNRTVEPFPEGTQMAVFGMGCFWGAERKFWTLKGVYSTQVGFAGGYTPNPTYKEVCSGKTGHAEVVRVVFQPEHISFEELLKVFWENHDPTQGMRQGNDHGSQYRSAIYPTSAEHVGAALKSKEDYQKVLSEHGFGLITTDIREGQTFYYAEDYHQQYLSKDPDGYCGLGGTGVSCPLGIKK
structure (smiles),measurement,setting,value
Cc1cc(C(F)F)nn1CC(=O)Nc1sc2c(c1C#N)CCC2,IC50,[1],> 99 µM (inactive)
same,IC50,Caspase-3,> 99 µM (inactive)
same,IC50,[2],> 99 µM (inactive)
same,IC50,[3],> 99 µM (inactive)
CS(=O)(=O)c1ccc(C(=O)NCCN2C(=O)S/C(=C\c3cccnc3)C2=O)cc1[N+](=O)[O-],IC50,[4],5.89 µM (active)
same,IC50,[5],2.17 µM (active)
CC(C)(C)c1cc(C(=O)Nc2cccnc2)cc(C(=O)Nc2cccnc2)c1,AC50,[6],1.28 µM (active)
Cc1ccc(-c2nc(NCCN3CCOCC3)c3ccccc3n2)cc1,EC50,[7],56.3 µM (active)
same,IC50,[8],30.7 µM (inactive)
same,AC50,[9],24.8 µM (active)
same,EC50,[10],21.1 µM (active)
same,EC50,H4,16.9 µM (active)
same,IC50,[11],16 µM (active)
CCCCCNC(=O)C(c1cccc2ccccc12)n1c(=O)c(-c2ccco2)nc2ccccc21 (stereo not given),IC50,[4],2.83 µM (active)
CC1(C(=O)Nc2ccccc2)CCN1C(=O)Cc1ccc(-c2ccccc2)cc1 (stereo not given),EC50,[12],> 104 µM (inactive)
CC(=O)c1c(C)[nH]c(C(=O)OCC(=O)Nc2cccc(S(=O)(=O)N3CCCC3)c2)c1C,IC50,Protein Wnt-3a,5.02 µM (active)
CCCCc1ccc2nc(NC(=O)C3CCCCC3)sc2c1,IC50,[1],> 99 µM (inactive)
same,IC50,Caspase-3,> 99 µM (inactive)
same,IC50,[2],> 99 µM (inactive)
same,IC50,[3],> 99 µM (inactive)
O=C(NCc1ccccn1)c1c(-c2ccccc2)sc2ccccc12,AC50,[13],121 µM (active)
Cc1nc2ncccn2c1-c1csc(Nc2ccc(O)cc2)n1,IC50,Protein Wnt-3a,48.9 µM (inactive)
same,IC50,[14],14.3 µM (active)
COc1cccc(NC(=O)CCC2CCN(C(=O)c3ccc(C(C)=O)s3)CC2)c1,AC50,[6],0.508 µM (active)
CC(=O)N1CN(Cc2ccccn2)Cc2c1sc1c2CCCC1,AC50,[13],87.9 µM (active)
